One block for each compound: values may come before it. Calls of active or inactive are those of the source.
Columns and labels:
[1] = nonselective inhibitors of cellular cAMP signaling, dose response, counter-screen for MC4R biased antagonist project, cell-based, TR-FRET cAMP detection (AID 602305); assay type: functional;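 note: U2OS cells stimulated with forskolin near its EC80 as the cAMP inducer; potency is for inhibition of forskolin-stimulated cAMP signaling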
Melanocortin receptor 4 = Melanocortin receptor 4 (Homo sapiens, UniProt P32245); assay: MC4R antagonist potency on cAMP, dose response, cell-based, TR-FRET, biased antagonists (AID 602298); assay type: functional;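 note: antagonist potency against agonist-stimulated cAMP production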
Chain of Melanocortin receptor 4 (P32245 whole entry): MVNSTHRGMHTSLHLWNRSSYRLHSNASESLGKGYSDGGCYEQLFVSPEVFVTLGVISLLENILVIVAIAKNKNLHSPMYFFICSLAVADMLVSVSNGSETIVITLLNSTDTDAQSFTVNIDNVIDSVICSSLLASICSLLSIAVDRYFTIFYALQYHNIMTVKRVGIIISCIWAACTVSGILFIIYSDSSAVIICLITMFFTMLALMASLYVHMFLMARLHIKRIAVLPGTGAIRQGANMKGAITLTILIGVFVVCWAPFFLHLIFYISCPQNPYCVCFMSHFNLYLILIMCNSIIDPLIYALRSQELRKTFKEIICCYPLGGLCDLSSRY

[2] = biological target: Neurotensin receptor type 1 (Homo sapiens, UniProt P30989); assay type: functional;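 note: Image-based confirmatory dose-response assay measuring agonist activity at NTR1; NTR1-expressing U2OS osteosarcoma cells imaged for beta-arrestin GFP spot formation; agonist potency where compounds increase beta-arrestin recruitment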
Chain of Neurotensin receptor type 1 (P30989 whole entry): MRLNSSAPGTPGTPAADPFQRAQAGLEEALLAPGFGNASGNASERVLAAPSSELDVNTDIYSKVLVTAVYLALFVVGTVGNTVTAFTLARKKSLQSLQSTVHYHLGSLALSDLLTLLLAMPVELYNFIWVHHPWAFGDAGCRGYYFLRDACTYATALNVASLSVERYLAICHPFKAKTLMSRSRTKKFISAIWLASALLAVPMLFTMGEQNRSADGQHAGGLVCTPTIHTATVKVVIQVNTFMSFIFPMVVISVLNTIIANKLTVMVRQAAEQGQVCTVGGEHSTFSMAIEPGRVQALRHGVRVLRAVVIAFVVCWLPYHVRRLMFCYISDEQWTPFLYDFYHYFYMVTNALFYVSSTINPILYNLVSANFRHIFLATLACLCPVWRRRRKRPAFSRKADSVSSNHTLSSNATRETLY

[3] = biological target: T1, Acyl-homoserine lactone acylase PvdQ (Pseudomonas aeruginosa (strain LESB58), UniProt Q9I194); assay: P. aeruginosa PvdQ acylase inhibitors, dose response, biochemical, fluorescence, plate reader and imaging, cherry-picks (AID 493231)
T1 sequence (Q9I194 whole entry): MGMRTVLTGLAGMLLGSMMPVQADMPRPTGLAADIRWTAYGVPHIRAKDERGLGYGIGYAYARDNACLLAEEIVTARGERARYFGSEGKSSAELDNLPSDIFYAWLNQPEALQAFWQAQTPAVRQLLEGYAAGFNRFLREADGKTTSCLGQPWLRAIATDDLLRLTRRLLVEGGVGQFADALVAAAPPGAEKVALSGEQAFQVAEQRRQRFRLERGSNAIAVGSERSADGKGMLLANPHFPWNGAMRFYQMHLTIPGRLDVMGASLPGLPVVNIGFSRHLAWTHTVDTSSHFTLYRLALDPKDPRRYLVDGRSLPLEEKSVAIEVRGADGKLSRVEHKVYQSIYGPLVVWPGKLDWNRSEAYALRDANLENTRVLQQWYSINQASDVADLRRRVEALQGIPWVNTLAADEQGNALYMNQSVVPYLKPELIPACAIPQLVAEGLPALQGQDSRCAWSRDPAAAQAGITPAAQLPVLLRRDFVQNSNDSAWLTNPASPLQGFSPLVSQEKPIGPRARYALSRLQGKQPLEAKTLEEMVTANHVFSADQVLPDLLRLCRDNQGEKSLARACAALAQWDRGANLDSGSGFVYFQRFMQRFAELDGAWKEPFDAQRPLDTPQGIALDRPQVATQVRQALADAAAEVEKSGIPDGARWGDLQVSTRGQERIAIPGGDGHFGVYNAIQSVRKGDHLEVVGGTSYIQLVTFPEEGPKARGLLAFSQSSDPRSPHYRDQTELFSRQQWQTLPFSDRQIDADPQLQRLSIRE

Protein skinhead-1 = biological target: T2, Protein skinhead-1 (Caenorhabditis elegans, UniProt P34707); assay type: functional
T2 sequence (P34707 whole entry): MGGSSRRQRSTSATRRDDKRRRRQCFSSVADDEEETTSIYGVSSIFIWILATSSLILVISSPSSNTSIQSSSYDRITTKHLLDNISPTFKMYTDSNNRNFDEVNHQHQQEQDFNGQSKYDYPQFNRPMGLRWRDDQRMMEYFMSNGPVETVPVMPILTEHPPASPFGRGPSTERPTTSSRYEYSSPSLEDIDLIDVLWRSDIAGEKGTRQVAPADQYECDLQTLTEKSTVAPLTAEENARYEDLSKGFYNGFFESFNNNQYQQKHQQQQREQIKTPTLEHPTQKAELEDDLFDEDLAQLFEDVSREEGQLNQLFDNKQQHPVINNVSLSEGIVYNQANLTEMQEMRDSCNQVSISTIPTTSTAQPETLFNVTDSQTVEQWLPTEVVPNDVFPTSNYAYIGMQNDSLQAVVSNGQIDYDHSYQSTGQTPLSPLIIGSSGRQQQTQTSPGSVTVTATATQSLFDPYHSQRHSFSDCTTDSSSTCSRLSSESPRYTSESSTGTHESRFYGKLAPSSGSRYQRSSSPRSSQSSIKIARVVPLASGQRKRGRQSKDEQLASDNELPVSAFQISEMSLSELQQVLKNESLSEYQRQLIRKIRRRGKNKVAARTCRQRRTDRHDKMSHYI

BJ [4] = assay: cells; assay type: functional, cell-based; settings: Homo sapiens
[5] = cytotoxicity toward DRD oncogenic fibroblasts, dose response, cell-based, non-viral oncogenic, luminescence (AID 1934); assay type: functional; settings: Homo sapiens
[6] = growth suppression of beta-catenin-knockout colon cells, dose response, cell-based, HCT116, human colon tumor (AID 1045); assay type: functional;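 note: HCT116 colon tumor cells with beta catenin knocked out; cells exposed to compound for 60 hours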
BJ [7] = assay: cytotoxicity toward BJ-TERT fibroblasts, dose response, cell-based, RAS-independent, luminescence (AID 1933); assay type: functional; settings: Homo sapiens
[8] = growth suppression of PTEN-null colon cells, dose response, cell-based, HCT116 PTEN knockout (AID 1047); assay type: functional;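 note: HCT116 colon tumor cells with PTEN knocked out; cells exposed to compound for 60 hours before readout; potency for loss of cell viability measured by luminescence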
[9] = biological target: FAD-linked sulfhydryl oxidase ALR (Homo sapiens, UniProt P55789); assay: inhibitors of human ALR sulfhydryl oxidase, dose response, biochemical, H2O2 detection, luminescence, cherry-pick (AID 493248)
Chain of FAD-linked sulfhydryl oxidase ALR (P55789 whole entry): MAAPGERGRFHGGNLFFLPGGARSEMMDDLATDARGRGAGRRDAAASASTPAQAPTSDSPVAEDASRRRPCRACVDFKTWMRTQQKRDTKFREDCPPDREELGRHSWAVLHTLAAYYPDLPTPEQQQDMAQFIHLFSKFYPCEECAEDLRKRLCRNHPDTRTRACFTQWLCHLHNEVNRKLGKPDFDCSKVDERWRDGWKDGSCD

BJ [10] = assay: cytotoxicity toward BJ-TERT-LT-ST fibroblasts, dose response, cell-based, RAS-independent, luminescence (AID 1935); assay type: functional; settings: Homo sapiens;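 note: BJ fibroblasts immortalized with TERT plus LT and ST oncogenes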
[11] = biological target: Alkaline phosphatase, placental type (Homo sapiens, UniProt P05187); assay: PLAP enzyme inhibitors, confirmation, biochemical, luminescence (AID 1512); assay type: functional
Chain of Alkaline phosphatase, placental type (P05187 whole entry): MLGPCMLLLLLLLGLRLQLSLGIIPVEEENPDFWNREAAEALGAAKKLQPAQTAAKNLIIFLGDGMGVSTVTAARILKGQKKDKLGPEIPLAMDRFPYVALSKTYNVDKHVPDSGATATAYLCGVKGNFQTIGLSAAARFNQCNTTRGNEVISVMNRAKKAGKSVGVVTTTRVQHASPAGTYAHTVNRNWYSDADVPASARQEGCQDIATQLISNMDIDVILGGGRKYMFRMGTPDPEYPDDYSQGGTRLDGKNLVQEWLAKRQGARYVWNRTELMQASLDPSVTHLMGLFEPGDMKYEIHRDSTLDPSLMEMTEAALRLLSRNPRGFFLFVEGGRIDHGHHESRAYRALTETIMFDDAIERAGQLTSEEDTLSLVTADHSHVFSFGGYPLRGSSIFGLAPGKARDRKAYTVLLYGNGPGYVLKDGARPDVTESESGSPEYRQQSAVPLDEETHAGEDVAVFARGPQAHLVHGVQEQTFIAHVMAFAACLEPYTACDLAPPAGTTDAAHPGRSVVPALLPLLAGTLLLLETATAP

Large T antigen = Large T antigen (Simian virus 40, UniProt P03070); assay type: functional, Betapolyomavirus macacae;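 note: Confirmatory-stage PubChem screen for compounds that inhibit SV40 T antigen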
Chain of Large T antigen (P03070 whole entry): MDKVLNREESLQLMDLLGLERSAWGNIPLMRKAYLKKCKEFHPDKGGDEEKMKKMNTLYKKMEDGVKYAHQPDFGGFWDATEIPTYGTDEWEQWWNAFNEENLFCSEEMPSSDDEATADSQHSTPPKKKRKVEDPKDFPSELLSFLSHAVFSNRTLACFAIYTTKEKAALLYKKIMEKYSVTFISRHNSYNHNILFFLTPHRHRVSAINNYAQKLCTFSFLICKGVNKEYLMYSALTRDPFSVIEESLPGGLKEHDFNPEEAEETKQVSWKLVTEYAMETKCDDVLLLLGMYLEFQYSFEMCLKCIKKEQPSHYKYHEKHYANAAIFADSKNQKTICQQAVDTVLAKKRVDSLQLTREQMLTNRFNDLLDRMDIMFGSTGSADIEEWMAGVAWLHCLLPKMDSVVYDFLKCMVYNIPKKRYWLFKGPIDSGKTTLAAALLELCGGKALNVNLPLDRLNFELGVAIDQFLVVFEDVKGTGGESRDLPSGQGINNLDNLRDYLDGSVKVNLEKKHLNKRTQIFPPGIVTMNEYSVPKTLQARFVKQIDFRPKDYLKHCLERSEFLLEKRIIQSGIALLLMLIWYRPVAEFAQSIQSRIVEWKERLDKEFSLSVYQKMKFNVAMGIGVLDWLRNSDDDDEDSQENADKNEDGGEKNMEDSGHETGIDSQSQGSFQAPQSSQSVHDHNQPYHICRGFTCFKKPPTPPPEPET

[12] = biological target: Glucose-6-phosphate 1-dehydrogenase (Homo sapiens, UniProt P11413); assay: human G6PD enzyme inhibitors, dose response, selectivity assay for P. falciparum G6PD inhibitor project, biochemical, fluorescence (AID 504792); assay type: functional
Chain of Glucose-6-phosphate 1-dehydrogenase (P11413 whole entry): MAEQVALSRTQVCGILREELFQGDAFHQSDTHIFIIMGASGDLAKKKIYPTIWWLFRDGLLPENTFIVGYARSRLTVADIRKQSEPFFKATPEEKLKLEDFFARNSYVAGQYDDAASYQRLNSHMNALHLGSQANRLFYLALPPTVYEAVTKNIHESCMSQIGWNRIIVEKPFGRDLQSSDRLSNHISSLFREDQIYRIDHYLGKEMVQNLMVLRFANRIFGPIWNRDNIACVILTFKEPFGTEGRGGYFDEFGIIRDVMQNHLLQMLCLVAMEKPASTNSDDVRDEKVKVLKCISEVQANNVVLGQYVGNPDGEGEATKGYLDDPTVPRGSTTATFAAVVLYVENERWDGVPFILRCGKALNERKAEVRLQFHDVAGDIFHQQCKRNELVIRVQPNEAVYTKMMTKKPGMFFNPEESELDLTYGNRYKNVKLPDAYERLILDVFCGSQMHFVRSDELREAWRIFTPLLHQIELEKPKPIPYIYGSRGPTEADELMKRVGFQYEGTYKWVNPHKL

[13] = biological target: T3, C-C chemokine receptor type 6 (Homo sapiens, UniProt P51684); assay: CCR6 receptor antagonists, dose response, cell-based, luminescent beta-arrestin readout (AID 504728); assay type: functional
T3 sequence (P51684 whole entry): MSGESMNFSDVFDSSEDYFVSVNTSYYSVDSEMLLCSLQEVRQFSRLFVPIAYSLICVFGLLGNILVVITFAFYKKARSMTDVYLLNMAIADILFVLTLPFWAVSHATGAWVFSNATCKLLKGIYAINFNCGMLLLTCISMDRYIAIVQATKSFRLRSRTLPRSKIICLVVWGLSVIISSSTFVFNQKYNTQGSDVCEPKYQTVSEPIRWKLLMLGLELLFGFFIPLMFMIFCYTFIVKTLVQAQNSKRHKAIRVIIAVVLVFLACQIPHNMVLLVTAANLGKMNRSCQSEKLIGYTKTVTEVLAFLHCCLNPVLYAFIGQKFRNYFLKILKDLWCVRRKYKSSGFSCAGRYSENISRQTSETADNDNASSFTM

Beta-galactosidase = Beta-galactosidase (Escherichia coli, UniProt Q8VNN2); assay: beta-galactosidase enzyme inhibitors and activators, dose response, artefact control for CCR6 antagonist project, biochemical, E. coli enzyme, set 3 (AID 504712); assay type: functional
Chain of Beta-galactosidase (Q8VNN2 whole entry): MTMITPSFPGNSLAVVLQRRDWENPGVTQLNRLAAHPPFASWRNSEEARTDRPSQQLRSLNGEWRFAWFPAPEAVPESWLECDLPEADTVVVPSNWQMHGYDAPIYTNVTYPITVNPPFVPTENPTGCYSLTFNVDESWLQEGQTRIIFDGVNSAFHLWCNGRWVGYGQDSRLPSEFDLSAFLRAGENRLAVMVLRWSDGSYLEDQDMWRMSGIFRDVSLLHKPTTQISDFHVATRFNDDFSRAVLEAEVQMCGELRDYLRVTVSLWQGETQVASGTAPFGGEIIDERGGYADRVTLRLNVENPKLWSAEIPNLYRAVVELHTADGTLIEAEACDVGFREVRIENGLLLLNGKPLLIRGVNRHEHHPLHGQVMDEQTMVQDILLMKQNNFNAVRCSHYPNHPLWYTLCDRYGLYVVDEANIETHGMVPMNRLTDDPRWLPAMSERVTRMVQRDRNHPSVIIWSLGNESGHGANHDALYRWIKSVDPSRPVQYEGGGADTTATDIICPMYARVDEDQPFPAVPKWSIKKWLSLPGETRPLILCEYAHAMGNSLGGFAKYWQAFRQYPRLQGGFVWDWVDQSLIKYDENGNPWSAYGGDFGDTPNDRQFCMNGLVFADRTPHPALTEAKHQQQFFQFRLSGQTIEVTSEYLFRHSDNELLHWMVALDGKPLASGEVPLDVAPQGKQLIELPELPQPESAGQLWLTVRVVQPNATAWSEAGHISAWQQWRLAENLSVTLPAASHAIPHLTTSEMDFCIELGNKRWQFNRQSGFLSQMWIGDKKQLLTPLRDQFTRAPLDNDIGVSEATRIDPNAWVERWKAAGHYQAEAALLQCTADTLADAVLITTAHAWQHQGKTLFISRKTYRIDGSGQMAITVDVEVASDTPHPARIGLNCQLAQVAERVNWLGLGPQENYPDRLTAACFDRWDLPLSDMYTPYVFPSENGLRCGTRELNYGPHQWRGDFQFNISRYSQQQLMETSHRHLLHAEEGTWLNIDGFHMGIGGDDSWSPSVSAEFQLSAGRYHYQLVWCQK

Compound: CCCOc1ccc(C(=O)c2ccccc2C(=O)OC2CCOC2=O)cc1OCCC (configuration not stated)
IC50 [1]: > 64.6 µM (inactive) | IC50 (Melanocortin receptor 4): > 64.6 µM (inactive) | EC50 [2]: 19.8 µM (active)

Compound: C#CCSc1ncc(-c2ccccc2)cn1
AC50 [3]: 6.14 µM (active) | IC50 (Protein skinhead-1): 15.3 µM (active)

Compound: Cn1nc(-c2ccc(Cl)cc2)c2cc(C(=O)NCCCN3CCCC3)sc21
EC50 (BJ [4]): 23.1 µM (active) | EC50 [5]: 12.4 µM (active) | EC50 [6]: 4.01 µM (active) | EC50 (BJ [7]): 9.41 µM (active) | EC50 [8]: 4.65 µM (active) | AC50 [9]: 6.39 µM (active) | EC50 (BJ [10]): > 150 µM (inconclusive)

IC50 [11]: > 100 µM (inactive)
Compound: COc1cccc(C=NNc2nn3cnnc3c3ccccc23)c1O

Compound: COc1ccccc1N1C(=O)C=C(Sc2nc(C)cc(C)n2)C1=O
IC50 (Large T antigen): 24.3 µM (active) | IC50 [12]: > 80 µM (inactive) | IC50 [13]: > 66.6 µM (inactive) | IC50 (Beta-galactosidase): > 66.6 µM (inactive)
